Reference: US11992479B2, “R-fadrozole for use in the treatment of aldostonerism” (priority 2018, dated 2024)
Read-outs that look alike come from different tables or passages of the source. Marks after values point to notes of the source that are not given here.

Experiments:
[1] = tested on: plasma aldosterone; conditions: for Plasma levels of Aldosterone: mean ± SEM
Description: (§1) There were 6 subjects treated with each dose and twelve subjects treated with placebo (two placebo-treated-subjects included with each dose group).
(§2) The diet consisted of 70-80 mEq/day of sodium and 80-90 mEq/day of potassium. Blood samples were obtained daily at the time points indicated in the accompanying Tables for measurements of aldosterone, 11β-deoxycorticosterone (DOC), and potassium (K^+). All of the blood samples were obtained while the subjects were seated in a resting state.
Statistical evaluations of the hormonal responses was performed using the two-tailed, paired Student's t-test to evaluate within treatment group data, and data from between treatment groups utilized the two-tailed t-test equal variance model.

[2] = tested on: potassium; conditions: mean ± SEM
Description: as §1, §2

[3] = tested on: ACTH-stimulated aldosterone; conditions: for Plasma aldosterone, Difference Post-ACTH vs Pre-ACTH: Day 1
[4] = tested on: estradiol; conditions: for Serum Estradiol: mean ± SEM
Protocol: (§3) All of the above assays used for measuring serum estradiol, testosterone, and FSH levels were conducted as described by the manufacture.

[5] = tested on: follicle stimulating hormone (FSH); conditions: for Serum FSH: mean ± SEM
Protocol: as §3

[6] = tested on: testosterone; conditions: for Serum Testosteron: mean ± SEM
Protocol: as §3

[7] = Protocol: The Dynamic Vapour Sorption (DVS) studies were performed using a Surface Measurement Systems Ltd. DVS-1 No Video. The sample was loaded into a balance pan, typically 20-30 mg, and equilibrated at 0% RH. […] After completion of the sorption cycle, the sample was dried using the same method. The software used for data collection was DVSWin v3.01 No Video. Data analysis was performed using DVS Standard Analysis Suite v6.3.0 (Standard).
[8] = up until 225° C., TGA/DSC
Protocol: The thermogravimetric analysis and differential scanning calorimetry (TGA/DSC) studies were performed using a Mettler Toledo TGA/DSC1 STARe System with a 34-position auto sampler. The samples were made using AI crucibles (40 μL; pierced). Typically 5-10 mg of sample was loaded into a pre-weighed Al crucible and was kept at 30° C. for 5 minutes, after which it was heated at 10° C./min from 30° C. to 350° C. A nitrogen purge of 40 ml/min was maintained over the sample. […] No corrections were applied to the thermogram.

[9] = tested on: cortisol; test: ACTH (Synacten) stress test: cortisol response; conditions: 16 mg/day
Protocol: For a stress test, on day 1 of the single dose phase of the study or on day 7 of the multiple dose phase of the study an ACTH (Synacten) stress test was initiated as follows. […] Blood samples were obtained 60 min post-Synacten. The samples were analyzed for aldosterone and 11β-deoxycorticosterone (DOC) by the Clinical Chemistry Unit at the University Hospital Inselspital Bern, Bern Switzerland. Aldosterone was measured using the Liaison® chemiluminescent immunoassay kit supplied by DiaSorin S.p.A. Italy. Because this assay system uses specific monoclonal antibodies for aldosterone there are no cross reactions with other major potential reactants in the serum samples. The assays were performed according to the instructions provided by the manufacturer.
Serum cortisol, estradiol, testosterone, and follicle stimulating hormone (FSH) were measured by Covance's diagnostic unit, Harrogate, UK with the ADVIA Centaur®CP system (Siemens AG). […] The ADVIA Centaur enhanced estradiol assay is a fully automated, monoclonal competitive, chemiluminescent immunoassay, and has a sensitivity of 10 pg/ml. […] The ADVIA Centaur®CP testosterone assay is a competitive, solid phase immunoassay using direct chemiluminescent technology. All of the above assays were conducted as described by the manufacture.

[10] = 4 mg once daily, Day 2 (08:00 h)
[11] = 8 mg once daily, Day 2 (08:00 h)
[12] = 16 mg once daily, Day 2 (08:00 h)
[13] = 4 mg once daily, Day 1 (08:00 h), pretreatment
[14] = 8 mg once daily, Day 1 (08:00 h), pretreatment
[15] = 16 mg once daily, Day 1 (08:00 h), pretreatment
[16] = 4 mg once daily, Day 9 (08:00 h)
[17] = 8 mg once daily, Day 9 (08:00 h)
[18] = 16 mg once daily, Day 9 (08:00 h)
[19] = once-daily oral dosing with 4, 8, or 16 mg

Structure (SMILES): N#Cc1ccc([C@H]2CCCc3cncn32)cc1.O=P(O)(O)O [DP13, (R)-(+)-5-(p-cyanophenyl)-5,6,7,8-tetrahydroimidazolium[1,5-a]pyridine dihydrogen phosphate]
- suppression of plasma aldosterone compared to placebo ([1]; 1 mg dose): 52%
- suppression of plasma aldosterone compared to pretreatment values ([1]; 1 mg dose, 18 and 24 hours after the last once daily dose on day 8 (so in the source)): 18%
- suppression of plasma aldosterone compared to placebo ([1]; 2 mg dose): 61%
- suppression of plasma aldosterone compared to pretreatment values ([1]; 2 mg dose, 18 and 24 hours after the last once daily dose on day 8 (so in the source)): 39%
- Plasma levels of Aldosterone ([1]; 4 mg once daily oral, 8 days, Day 1, 08:00 h, pretreatment): 306.2 ± 59.0 pmol/L
- Plasma levels of Aldosterone [1, 10]: 198.4 ± 43.4^b,d pmol/L
- Plasma levels of Aldosterone ([1]; 4 mg once daily, Day 8, 14:00 h): 166.2 ± 17.9^c,d pmol/L
- Plasma levels of Aldosterone ([1]; 4 mg once daily, Day 9, 08:00 h (24 h after last dose)): 334.9 ± 53.3 pmol/L
- plasma aldosterone versus placebo control ([1]; 4 mg/day oral, day 9, twenty-four hours after the last of 8 daily doses): failed to lower the plasma aldosterone level below the level of the placebo control
- Plasma levels of Aldosterone ([1]; 8 mg once daily oral, 8 days, Day 1, 08:00 h, pretreatment): 271.4 ± 31.5 pmol/L
- Plasma levels of Aldosterone [1, 11]: 118.0 ± 12.4^b,d pmol/L
- Plasma levels of Aldosterone ([1]; 8 mg once daily, Day 8, 14:00 h): 91.9 ± 7.5^c,d pmol/L
- Plasma levels of Aldosterone ([1]; 8 mg once daily, Day 9, 08:00 h (24 h after last dose)): 186.4 ± 22.1^d pmol/L
- suppression of plasma aldosterone compared to pretreatment values ([1]; 8 mg once daily, twenty-four hours after the last dose on day 8): 32%
- Plasma levels of Aldosterone ([1]; 16 mg once daily oral, 8 days, Day 1, 08:00 h, pretreatment): 314.6 ± 48.6 pmol/L
- Plasma levels of Aldosterone [1, 12]: 108.4 ± 13.4^b,d pmol/L
- Plasma levels of Aldosterone ([1]; 16 mg once daily, Day 8, 14:00 h): 100.9 ± 8.3^c,d pmol/L
- Plasma levels of Aldosterone ([1]; 16 mg once daily, Day 9, 08:00 h (24 h after last dose)): 156.0 ± 26.8^a,d pmol/L
- suppression of plasma aldosterone compared to pretreatment values ([1]; 16 mg once daily, twenty-four hours after the last dose on day 8): 50%
- Plasma levels of Aldosterone ([1]; single dose 1 mg, Day 1, 08:00 h, pretreatment): 171 ± 8.1 pmol/L
- Plasma levels of Aldosterone ([1]; single dose 1 mg, Day 1, 14:00 h): 118 ± 8.4^e pmol/L
- Plasma levels of Aldosterone ([1]; single dose 1 mg, Day 1, 20:00 h): 104 ± 4.9^e pmol/L
- Plasma levels of Aldosterone ([1]; single dose 1 mg, Day 2, 08:00 h): 141 ± 14^e pmol/L
- Plasma levels of Aldosterone ([1]; single dose 2 mg, Day 1, 08:00 h, pretreatment): 203 ± 13.8 pmol/L
- Plasma levels of Aldosterone ([1]; single dose 2 mg, Day 1, 14:00 h): 129 ± 8.8^e pmol/L
- Plasma levels of Aldosterone ([1]; single dose 2 mg, Day 1, 20:00 h): 114 ± 9.2^e pmol/L
- Plasma levels of Aldosterone ([1]; single dose 2 mg, Day 2, 08:00 h): 124 ± 9^e pmol/L
- Blood levels of potassium [2, 13]: 4.4 ± 0.6 mmol/L
- Blood levels of potassium ([2]; 4 mg once daily, Day 8, 08:00 h pre-dose): 4.8 ± 0.8^a,b mmol/L
- Blood levels of potassium [2, 14]: 4.3 ± 0.07 mmol/L
- Blood levels of potassium ([2]; 8 mg once daily, Day 8, 08:00 h pre-dose): 4.6 ± 0.09^a,b mmol/L
- Blood levels of potassium [2, 15]: 4.4 ± 0.11 mmol/L
- Blood levels of potassium ([2]; 16 mg once daily, Day 8, 08:00 h pre-dose): 4.7 ± 0.06^a,b mmol/L
- Plasma levels of Aldosterone, Pre-ACTH ([3]; 4 mg once daily, Day 7, 09:30 h ([…] post-dose), mean ± SEM): 203.5 ± 26.7 pmol/L
- Plasma levels of Aldosterone, Post-ACTH ([3]; 4 mg once daily, Day 7, 11:00 h, ACTH i.v. at 10:00 h, mean ± SEM): 181.1 ± 14.3^b pmol/L
- Plasma levels of Aldosterone, Pre-ACTH ([3]; 8 mg once daily, Day 7, 09:30 h, mean ± SEM): 121.0 ± 14.0 pmol/L
- Plasma levels of Aldosterone, Post-ACTH ([3]; 8 mg once daily, Day 7, 11:00 h, mean ± SEM): 115.5 ± 10.6^b pmol/L
- Plasma levels of Aldosterone, Pre-ACTH ([3]; 16 mg once daily, Day 7, 09:30 h, mean ± SEM): 102.2 ± 13.4 pmol/L
- Plasma levels of Aldosterone, Post-ACTH ([3]; 16 mg once daily, Day 7, 11:00 h, mean ± SEM): 103.4 ± 11.1^b pmol/L
- effect on aldosterone increase elicited by ACTH ([3]; 4, 8, or 16 mg once daily oral, day 7): able to prevent the 2- to 3-fold increases in aldosterone elicited by ACTH
- Plasma aldosterone, Difference Post-ACTH vs Pre-ACTH ([3]; single dose 1 mg): (−6) pmol/L
- Plasma levels of Aldosterone, Pre-ACTH ([3]; single dose 1 mg, Day 1, 09:30 h, mean ± SD, N = six): 99 ± 13 pmol/L
- Plasma levels of Aldosterone, Post-ACTH ([3]; single dose 1 mg, Day 1, 11:00 h, mean ± SD, N = six): 94 ± 6^a pmol/L
- Plasma aldosterone, Difference Post-ACTH vs Pre-ACTH ([3]; single dose 2 mg): (−12) pmol/L
- Plasma levels of Aldosterone, Pre-ACTH ([3]; single dose 2 mg, Day 1, 09:30 h, mean ± SD, N = six): 132 ± 22 pmol/L
- Plasma levels of Aldosterone, Post-ACTH ([3]; single dose 2 mg, Day 1, 11:00 h, mean ± SD, N = six): 120 ± 20^a pmol/L
- Serum Estradiol [4, 13]: 98 ± 10.2 pM/L
- Serum Estradiol [4, 10]: 92 ± 9.8 pM/L
- Serum Estradiol [4, 16]: 127 ± 8.3^a,b pM/L
- Serum Estradiol [4, 14]: 90.0 ± 9.5 pM/L
- Serum Estradiol [4, 11]: 90.0 ± 12.1 pM/L
- Serum Estradiol [4, 17]: 113 ± 8.3^a pM/L
- Serum Estradiol [4, 15]: 97.4 ± 15.3 pM/L
- Serum Estradiol [4, 12]: 97.0 ± 9.4 pM/L
- Serum Estradiol [4, 18]: 114.0 ± 8.5 pM/L
- change of estradiol ([4]; 4 and 8 mg doses after 8 days of treatment): slightly increased
- effect on estradiol [4, 19]: neither inhibited estradiol
- Serum FSH [5, 13]: 2.7 ± 0.22 IU/L
- Serum FSH [5, 10]: 2.7 ± 0.27 IU/L
- Serum FSH [5, 16]: 2.7 ± 0.27 IU/L
- Serum FSH [5, 14]: 4.3 ± 0.94 IU/L
- Serum FSH [5, 11]: 4.1 ± 0.79 IU/L
- Serum FSH [5, 17]: 4.1 ± 0.91 IU/L
- Serum FSH [5, 15]: 2.6 ± 0.43 IU/L
- Serum FSH [5, 12]: 2.5 ± 0.43 IU/L
- Serum FSH [5, 18]: 2.5 ± 0.43 IU/L
- effect on circulating FSH [5, 19]: nor increased circulating testosterone or FSH
- Serum Testosteron [6, 13]: 17 ± 1.9 nM/L
- Serum Testosteron [6, 10]: 18 ± 1.9 nM/L
- Serum Testosteron [6, 16]: 15 ± 1.5^b nM/L
- Serum Testosteron [6, 14]: 18 ± 1.7 nM/L
- Serum Testosteron [6, 11]: 21 ± 6.2^a nM/L
- Serum Testosteron [6, 17]: 16 ± 1.4^a nM/L
- Serum Testosteron [6, 15]: 17 ± 1.9 nM/L
- Serum Testosteron [6, 12]: 20 ± 2.0^a nM/L
- Serum Testosteron [6, 18]: 17 ± 1.7 nM/L
- effect on circulating testosterone [6, 19]: nor increased circulating testosterone or FSH
- crystalline form upon DVS treatment [7]: crystalline form does not change upon DVS treatment
- Mass loss upon heating [8]: 1.4%
- cortisol before ACTH, the one subject below guideline [9]: 324 nmol/L
- cortisol in response to ACTH, the one subject below guideline ([9]; guideline 552 nmol/L): 504 nmol/L
